Results published in BindingDB's records for doi:10.1021/jm960450v (National Cancer Institute-Bethesda, 1997).

Legend:
Integrase [1] = target: T1, Integrase (Human immunodeficiency virus 1, UniProt Q7ZJM1); assay: Integration of DNA by HIV -1 integrase
Integrase [2] = target: T1, Integrase; assay: Inhibitory activity against 3'-processing of DNA byHIV-1 integrase
Integrase [3] = target: T1, Integrase; assay: Inhibitory activity against 3'-processing of DNA by HIV-1 integrase

T1 sequence (Q7ZJM1 whole entry): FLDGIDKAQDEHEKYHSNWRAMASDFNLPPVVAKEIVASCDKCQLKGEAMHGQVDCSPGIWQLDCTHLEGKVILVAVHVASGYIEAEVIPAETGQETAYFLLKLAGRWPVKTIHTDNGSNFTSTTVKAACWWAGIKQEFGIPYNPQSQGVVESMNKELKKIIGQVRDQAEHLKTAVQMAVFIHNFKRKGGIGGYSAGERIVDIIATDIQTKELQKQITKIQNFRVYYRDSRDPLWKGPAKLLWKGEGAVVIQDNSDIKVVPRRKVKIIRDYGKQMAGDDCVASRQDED

SMILES	IC50 (Integrase [1]) [µM]	IC50 (Integrase [2]) [µM]	IC50 (Integrase [3]) [µM]
O=c1oc2ccccc2c(O)c1C(c1cc(OCc2ccccc2)cc(OCc2ccccc2)c1)c1c(O)c2ccccc2oc1=O	12	–	–
O=c1oc2ccccc2c(O)c1C(c1ccc([N+](=O)[O-])cc1)c1c(O)c2ccccc2oc1=O	–	50	–
O=c1oc2ccccc2c(O)c1C(c1ccc(-c2ccccc2)cc1)c1c(O)c2ccccc2oc1=O	–	–	14
O=c1oc2ccccc2c(O)c1C(c1ccc2ccccc2c1)c1c(O)c2ccccc2oc1=O	16	–	20
CN(C)c1ccc(C(c2c(O)c3ccccc3oc2=O)c2c(O)c3ccccc3oc2=O)cc1	50	88	100
O=c1oc2ccccc2c(O)c1C(c1ccco1)c1c(O)c2ccccc2oc1=O	–	–	34
O=c1oc2ccccc2c(O)c1C(c1cccs1)c1c(O)c2ccccc2oc1=O	–	–	100
O=c1oc2ccccc2c(O)c1C(c1ccc(OCc2ccccc2)cc1)c1c(O)c2ccccc2oc1=O [3-[4-benzyloxyphenyl(4-hydroxy-2-oxo-2H-3-chromenyl)methyl]-4-hydroxy-2H-2-chromenone]	–	–	19
O=c1oc2ccccc2c(O)c1C(c1ccc2c(c1)Cc1ccccc1-2)c1c(O)c2ccccc2oc1=O [3-[9H-2-fluorenyl(4-hydroxy-2-oxo-2H-3-chromenyl)methyl]-4-hydroxy-2H-2-chromenone]	–	–	11
O=c1oc2ccccc2c(O)c1Cc1cccc(Cc2c(O)c3ccccc3oc2=O)c1 [4-hydroxy-3-[3-(4-hydroxy-2-oxo-2H-3-chromenylmethyl)benzyl]-2H-2-chromenone]	–	–	34
